The source of these data is patent publication US20070276045A1, “Anti-Bacterial Compounds” (priority 2004, published 2007).

Test [1] has as its system C. xerosis DSM 20170. Description: Bacteriostatic activity (MIC), microtiter broth turbidity. The class given is cell-based. The conditions noted are these: Corynebacterium xerosis, DSM20170; C. xerosis DSM 20170; growth inhibited by at least 80%, 24 h at 36° C.; read-out: MIC (minimal inhibitory concentration). From the text: (§1) The bacteriostatic effects of the compounds of the present invention are compared with those of known anti-bacterial agents against human skin bacteria. Typical bacteria (Corynebacterium and Staphylococcus strains) isolated from the human axilla and commercially available strains are used.
(§2) The different axilla bacteria are isolated from the human axilla according to techniques known in the art, in particular according to standard microbiological practice. They are taxonomically identified by cell morphology, gram-reaction and biochemical tests included in the Api coryne test kit (BioMerieux, France). Strain Staphylococcus epidermidis Ax25 is identified by fatty acid methyl ester analysis (FAME; German type strain collection DSMZ, Germany) . […] The strains are maintained on Tryptic soy broth plates, this standard medium being supplemented with 5 g per Litre of Polyoxyethylene Sorbitan Monooleate (Tween™ 80). Plates are incubated at 36° C. for a period of 48 hours. The bacteria are then swabbed from the plates and suspended in 4 ml of Muller-Hinton broth supplemented with 100 mg of Tween™ 80 per Litre (MH-Tween) and incubated again at 36° C. for 16 hours. Following incubation the bacterial suspensions are diluted in MH-Tween to obtain a final cell density of 10^7 colony forming units per ml. These diluted suspensions of the different test organisms are distributed to different columns of a microtiter plate, 100 μl per well. The test compounds are dissolved in dimethylsulfoxide (DMSO) at various test concentrations and 2.5 μl of these different DMSO solutions are added to the different wells of the test plates. The plates are covered with plastic films and incubated for 24 h at 36° C. with shaking at 250 rpm. The turbidity developing in the microtiter platesi then examined after 24 h to determine microbial growth.

A further test has as its system Escherichia coli DSM 682. The test is described as above. The class given is cell-based. Conditions: DSM682; Escherichia coli DSM 682; growth inhibited by at least 80%, 24 h at 36° C.; read-out: MIC (minimal inhibitory concentration).
Text: as §1, §2

Test [2] relates to S. epidermidis Ax 25. The test is described as above. The class given is cell-based. Conditions: Staphylococcus epidermidis, AX25; S. epidermidis Ax 25; growth inhibited by at least 80%, 24 h at 36° C.; read-out: MIC (minimal inhibitory concentration).
Text: as §1, §2

The test system of test [3] is Staphylococcus aureus DSM 799. The test is described as above. The class given is cell-based. The conditions noted are these: DSM799; Staphylococcus aureus DSM 799; growth inhibited by at least 80%, 24 h at 36° C.; read-out: MIC (minimal inhibitory concentration).
Text: as §1, §2

For test [4], the system named is Corynebacterium Ax 7. The test is described as above. It is filed as cell-based, Corynebacterium group G. The conditions noted are these: AX7; Corynebacterium Ax 7; growth inhibited by at least 80%, 24 h at 36° C.; read-out: MIC (minimal inhibitory concentration).
Text: as §1, §2

Test [5] has as its system Corynebacterium Ax 15. The test is described as above. It is filed as cell-based, Corynebacterium jeikeium. The conditions noted are these: AX15; Corynebacterium Ax 15; growth inhibited by at least 80%, 24 h at 36° C.; read-out: MIC (minimal inhibitory concentration).
Text: as §1, §2

The test system of test [6] is C. xerosis DSM 20170. Description: Bactericidal activity (MBC), 60 min contact. It is filed as cell-based. Conditions: Corynebacterium xerosis, DSM20170, 1 h, inoculum completely killed after 60 min incubation, read-out: MBC (minimal bactericidal concentration). From the text: (§3) The different axilla bacteria are isolated from the human axilla according to techniques known in the art, in particular according to standard microbiological practice. They are taxonomically identified by cell morphology, gram-reaction and biochemical tests included in the Api coryne test kit (BioMerieux, France). Strain Staphylococcus epidermidis Ax25 is identified by fatty acid methyl ester analysis (FAME; German type strain collection DSMZ, Germany) . Escherichia coli DSM 682, Staphylococcus aureus DSM 799, and Corynebacterium xerosis DSM 20170 are obtained from the German-type strain collection. The strains are maintained on Tryptic soy broth plates, this standard medium being supplemented with 5 g per Litre of Polyoxyethylene Sorbitan Monooleate (TweenTM 80). Plates are incubated at 36° C. for a period of 48 hours. The bacteria are then swabbed from the plates and suspended in 4 ml of Muller-Hinton broth supplemented with 100 mg of TweenTM 80 per Litre (MH-Tween) and incubated again at 36° C. for 16 hours. Following incubation the bacterial suspensions are diluted in MH-Tween to obtain a final cell density of 10^7 colony forming units per ml. These diluted suspensions of the different test organisms are distributed to different columns of a microtiter plate, 100 μl per well. The test compounds are dissolved in dimethylsulfoxide (DMSO) at various test concentrations and 2.5 μl of these different DMSO solutions are added to the different wells of the test plates. The plates are covered with plastic films and incubated for 24 h at 36° C. with shaking at 250 rpm. The turbidity developing in the microtiter […] examined after 24 h to determine microbial growth. […] The bacteria are grown, harvested and diluted under the same conditions as described in the example above and added to microtiter plates (100 μl per well), each well containing 2.5 μl of the different DMSO solutions as described above. After 60 min incubation, 0.5 μl of the bacterial culture from each well (corresponding to 5×10^3 cfu in the control treatment) is transferred to a fresh microtiter plate which contained 100 μl per well of fresh medium. The plates are covered with plastic films and incubated for 24 h at 36° C. with shaking at 250 rpm. The turbidity developing in the microtiter plates is then examined after 24 h to determine microbial growth. The minimal concentration of test compounds which completely killed the bacterial inoculum is determined as the minimal bactericidal concentration (MBC).

Test [7] concerns S. epidermidis Ax 25. Description: Bactericidal activity (MBC), 60 min contact. The class given is cell-based. The conditions noted are these: Staphylococcus epidermidis, AX25, 1 h, inoculum completely killed after 60 min incubation, read-out: MBC (minimal bactericidal concentration).
Text: as §3

Test [8] has as its system Corynebacterium Ax 7. Description: Bactericidal activity (MBC), 60 min contact. It is filed as cell-based, Corynebacterium group G. The conditions noted are these: AX7, 1 h, inoculum completely killed after 60 min incubation, read-out: MBC (minimal bactericidal concentration).
Text: as §3

Test [9] deals with Corynebacterium Ax 15. Description: Bactericidal activity (MBC), 60 min contact. It is filed as cell-based, Corynebacterium jeikeium. Conditions: AX15, 1 h, inoculum completely killed after 60 min incubation, read-out: MBC (minimal bactericidal concentration).
Text: as §3

Each structure is given as a SMILES string. In brackets after ≈: the same amount, converted by molar mass. Where only a bound is given, the exact number is not on record here.

Regarding `CCCCCCCCC(CCCCCC)C(=O)NCC(=O)O` (stereo not shown) [compound 11, (2-Hexyl-decanoylamino)-acetic acid], the MIC in the test with C. xerosis DSM 20170 [1] was no more than 19 µg/mL; in the test with Escherichia coli DSM 682, no less than 5000 µg/mL; in the test on S. epidermidis Ax 25 [2], 39 µg/mL (≈ 124 µM); in test [3] it was 55 µg/mL (≈ 175 µM); with Corynebacterium Ax 7 [4], no more than 19 µg/mL; with Corynebacterium Ax 15 [5], 78 µg/mL (≈ 249 µM). Further, the MBC in the test on C. xerosis DSM 20170 [6] was 313 µg/mL (≈ 998 µM); with S. epidermidis Ax 25 [7], no less than 5000 µg/mL; in the test with Corynebacterium Ax 7 [8], 156 µg/mL (≈ 498 µM); in the test with Corynebacterium Ax 15 [9] it was 313 µg/mL (≈ 998 µM).
